In this assay the target is T1, human GnRH receptor (Homo sapiens, UniProt P30968).
T1 construct: expressed in transfected cells; host or cells: HEK 293 (hGnRH-R/293, from Dr. Stuart Sealfon)
T1 sequence (P30968 1-328): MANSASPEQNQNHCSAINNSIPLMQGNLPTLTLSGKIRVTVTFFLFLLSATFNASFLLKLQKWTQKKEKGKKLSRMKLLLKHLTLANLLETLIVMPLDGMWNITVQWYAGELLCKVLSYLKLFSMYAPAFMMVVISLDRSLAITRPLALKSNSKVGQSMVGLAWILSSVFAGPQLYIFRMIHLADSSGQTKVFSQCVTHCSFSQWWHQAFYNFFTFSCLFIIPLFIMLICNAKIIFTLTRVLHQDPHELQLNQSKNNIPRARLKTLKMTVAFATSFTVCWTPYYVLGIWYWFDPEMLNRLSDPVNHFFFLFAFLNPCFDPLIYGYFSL
The assay is described as follows: Radioligand binding, 125I-GnRH-A displacement, membranes of HEK 293 cells with human GnRH receptor. The conditions noted are these: for remaining activity at 1 µM: substrate remaining, 1 uM compound, closer to zero = closer to 100% inhibition, read-out: S%R 1 uM hGnRHR. The method, boiled down:
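After filtration and PBS washes, bound radioactivity was counted by scintillation and IC50 derived. Identical conditions applied for non-human receptors.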

Setting [1] is: 1 uM, read-out: % Inhib. @ 1 uM hGnRH.
Where [2] appears, read: 1 h, repeat of % Inhib. at 1 uM, read-out: Repeats @ 1 uM hGnRH.

Structures are written as SMILES. Where two headings read alike, the source gives them in different places.

Regarding `COc1ccc(CNC(=O)c2ccc(Cc3cc4c(cc3C)C(C)(C)CCC4(C)C)o2)c(OC)c1` [Compound 450], the remaining activity at 1 µM (1 h) turned out to be 6%.
For the compound `Cc1cc2c(cc1Cc1ccc(C(=O)NCc3cccc([N+](=O)[O-])c3)o1)C(C)(C)CCC2(C)C` [Compound 451], the remaining activity at 1 µM (1 h) came to 24%.
For the compound `Cc1cc2c(cc1Cc1ccc(C(=O)NC(C#N)c3ccccc3)o1)C(C)(C)CCC2(C)C` (centres unmarked) [Compound 452], the remaining activity at 1 µM (1 h) is 55%.
As for `Cc1cc2c(cc1Cc1ccc(C(=O)NCc3ccc(Br)cc3)o1)C(C)(C)CCC2(C)C` [Compound 453], for the setting “1 h”, the remaining activity at 1 µM is 50%.
Still for that read-out and setting: as for `Cc1cc2c(cc1Cc1ccc(C(=O)NCc3cccc(Br)c3)o1)C(C)(C)CCC2(C)C` [Compound 454], the figure is 36%; as for `Cc1cc2c(cc1Cc1ccc(C(=O)NC(C)c3ccc([N+](=O)[O-])cc3)o1)C(C)(C)CCC2(C)C` (centres unmarked) [Compound 455], 58%.
Regarding `Cc1cc2c(cc1Cc1ccc(C(=O)NCCC3CCCN3C)o1)C(C)(C)CCC2(C)C` (centres unmarked) [drawing 977], the inhibition at 1 µM reads like this: under setting [1], 40%; under setting [2], 49%.
With `Cc1cc2c(cc1Cc1ccc(C(=O)NCCCN3CCOCC3)o1)C(C)(C)CCC2(C)C` [drawing 978], the inhibition at 1 µM was 57% under setting [1] and 58% under setting [2].
For `Cc1cc2c(cc1Cc1ccc(C(=O)NCCCN3CCN(C)CC3)o1)C(C)(C)CCC2(C)C` [drawing 980] the same measures were 26% and 26%.
Consider `Cc1cc2c(cc1Cc1ccc(C(=O)NCC3CCNCC3)o1)C(C)(C)CCC2(C)C` [drawing 981], for which the inhibition at 1 µM is 20% under setting [1] and 24% under setting [2].
`Cc1cc2c(cc1Cc1ccc(C(=O)NCCN3CCCCC3)o1)C(C)(C)CCC2(C)C` [drawing 982]: the inhibition at 1 µM under setting [1] worked out at 15% and the inhibition at 1 µM under setting [2] is 15%.
Turning to `Cc1cc2c(cc1Cc1ccc(C(=O)NCCCN3CCCCC3C)o1)C(C)(C)CCC2(C)C` (centres unmarked) [drawing 983], the inhibition at 1 µM under setting [1] came to 27% and the inhibition at 1 µM under setting [2] was determined as 31%.
Turning to `Cc1cc2c(cc1Cc1ccc(C(=O)NCc3ccccn3)o1)C(C)(C)CCC2(C)C` [drawing 984], the inhibition at 1 µM reads like this: under setting [1], 62%; under setting [2], 67%.
On to `Cc1cc2c(cc1Cc1ccc(C(=O)NCCc3ccccn3)o1)C(C)(C)CCC2(C)C` [drawing 985], for which the inhibition at 1 µM under setting [1] is 50% and the inhibition at 1 µM under setting [2] is 62%.
For the compound `Cc1cc2c(cc1Cc1ccc(C(=O)NCCN3CCCC3)o1)C(C)(C)CCC2(C)C` [drawing 986], the inhibition at 1 µM under setting [1] is -7% and the inhibition at 1 µM under setting [2] is 0%.
On to `Cc1cc2c(cc1Cc1ccc(C(=O)NCCN3CCOCC3)o1)C(C)(C)CCC2(C)C` [drawing 987], for which the inhibition at 1 µM is 63% under setting [1] and 69% under setting [2].
Take `Cc1cc2c(cc1Cc1ccc(C(=O)NCCc3ccc(S(N)(=O)=O)cc3)o1)C(C)(C)CCC2(C)C` [drawing 989]: the inhibition at 1 µM turned out to be 38% under setting [1] and 41% under setting [2].
Consider `Cc1cc2c(cc1Cc1ccc(C(=O)NCCCc3ccccc3)o1)C(C)(C)CCC2(C)C` [drawing 990], for which the inhibition at 1 µM by setting is: under setting [1], 86%; under setting [2], 90%.
In the case of `CC(=O)NCCNC(=O)c1ccc(Cc2cc3c(cc2C)C(C)(C)CCC3(C)C)o1` [drawing 991], the inhibition at 1 µM came to 52% under setting [1] and 54% under setting [2].
As for `Cc1cc2c(cc1Cc1ccc(C(=O)NCc3ccc4c(c3)OCO4)o1)C(C)(C)CCC2(C)C` [drawing 992], the inhibition at 1 µM is 75% under setting [1] and 92% under setting [2].
For `COc1ccc(CCNC(=O)c2ccc(Cc3cc4c(cc3C)C(C)(C)CCC4(C)C)o2)cc1OC` [drawing 993], the inhibition at 1 µM runs as follows: under setting [1], 47%; under setting [2], 52%.
As for `COc1cccc(CCNC(=O)c2ccc(Cc3cc4c(cc3C)C(C)(C)CCC4(C)C)o2)c1` [drawing 994], the inhibition at 1 µM reads like this: under setting [1], 49%; under setting [2], 50%.
